Assays:
PKCλ in HepG2 cells = assay: Confocal microscopy analysis of PKC translocation in HepG2 cells; format: cell-based, human; details: HepG2, pretreatment before extract
Procedure: Confocal microscopy analysis of PKC translocation in HepG2 cells. HepG2 cells were serum starved for 3 h and were treated with either 100 nmol/l insulin for 10 min or 25 mg/l FSE for 30 min. In some wells, cells were pretreated with pharmacological inhibitors before treating with extract. Cells were washed quickly with cold PBS and fixed by treating with 3% paraformaldehyde in PBS Ph 7.4, for 15 min at room temperature, rinsed with PBS three times and quenched with 1% glycine for 10 min. Cells were permeabilised with 0.025% saponin in PBS, for 5 min, blocked with PBS containing 5% FBS for 1 h at room temperature, incubated with anti-PKC antibody for overnight at 4° C. in PBS oontaining 2.5% FBS. Cells were washed four times for 5 min each with PBS. Cells were then incubated with a flourescein isothoicyanate conjugated anti-rabbit antibody for additional 1 h, washed again and mounted using vectashield (Vector Laboratories, Burlingame, Calif.) for visualization by confocal microscopy. Rabbit IgG was used as an isotype control.
Effect of FSE on PKCλ translocation in 3T3-L1 and RepG2 cells. […] To investigate the link between FSE induced 1R phosphorylation and GLUT4 translocation, translocation of PKCλ was studied in both 3T3-L1 and HepG2. […] Wortmannin and bis-1 decreased the fluorescence associated with the membrane.

[1] = tested on: PKCλ in 3T3-L1 adipocytes; assay: PKCλ in plasma membrane fraction of 3T3-L1 adipocytes (immunoblotting); format: cell-based; details: wortmannin 100 nmol/l 20 min, BIS-1 100 nmol/l 1 h
Procedure: Isolation of plasma membrane fraction and immunoblotting detection of PKCλ and GLUT4 in 3T3-L1 adipocytes. Differentiated 3T3-L1 cells in 100 mm petri dishes were serum starved for 3 h in DMEM supplemented with 0.1% BSA and then treated with 100 nmol/l insulin or […] for 10 min and 30 min respectively. In some cases cells were pre-treated with 100 nmol/l wortmannin, for 20 min or 100 nmol/l BIS-1 for 1 h followed by treatment with extract t for additional 30 min. Plasma membrane fractionation of 3 T3-L1 adipocytes was performed as previously described (28) with slight modifications that 1 mmol/l PMSF, 1 mmol/l Na3VO4 and a cocktail of protease inhibitors were added to the lysis buffers. Equal protein was diluted with 5× Laemmli buffer, electrophoresied by 10% SDS-PAGE and transferred on to a nitrocellulose membrane. The membrane was probed with anti-nPKCλ or anti-GLUT4 antibody.
Effect of FSE on PKCλ translocation in 3T3-L1 and RepG2 cells. […] To investigate the link between FSE induced 1R phosphorylation and GLUT4 translocation, translocation of PKCλ was studied in both 3T3-L1 and HepG2. […] In unstimulated HepG2 cells the immunofluorescence was minimum as visualized by confocal microscopy. […] Wortmannin and bis-1 decreased the fluorescence associated with the membrane.

[2] = tested on: CHO clones expressing insulin receptor and GLUT4eGFP; assay: Glucose transport (2-DG uptake) in GLUT4 overexpressing CHO cells; format: cell-based; details: wortmannin 20 min or BIS-1 100 nmol/l 1 h, then extract 30 min
Procedure: Cell Culture In Vitro Studies. […] For preadipocyte differentiation 80% confluent preadipocytes were cultured for 2 days in differentiation medium (DMEM supplemented with 1 μmol/l insulin, 0.5 mmol/l IBMX, 0.25 μmol/l DEX containing 10% FBS) and for 2 days in DMEM supplemented with 1 μmol/l insulin and 10% FBS. Thereafter the cells were grown for an additional 4-5 days in DMEM containing 10% FBS. Media was changed on every second day without any additional supplements. CHO clones expressing insulin receptor and GLUT4eGFP protein were grown in media supplemented with hygromycin additionally (100 μg/ml). Penicillin (100 units/ml) and streptomycin ([…]) were added routinely to cultures and all cell lines were cultivated at 37° C. in a 5% CO2 enriched humidified atmosphere.
Effect of FSE on glucose transport. […] Protein was estimated and the radioactivity incorporated into cells was quantified by scintillation counting (Packard, Albertville, Minn.). Nonspecific uptake, measured in the presence of 10 μmol/l cytochalasin B, was subtracted from all values. […]
(§1) Effect of FSE on glucose transport in GLUT4 overexpressing cells. […] CHO cells overexpressing insulin receptor as well as GLUT4 were incubated in the presence of various concentrations of FSE for 30 min and glucose transport was measured by determining the rates 2DG uptake. […]

[3] = tested on: GLUT4 in 3T3-L1 adipocytes; assay: GLUT4 translocation in 3T3-L1 cells (mycGLUT4 ELISA, membrane fractionation); format: cell-based
Procedure: GLUT4 Translocation Assay in GLUT4 Overexpressing Cell lines. CHO clones expressing insulin receptor and GLUT4eGFP protein were plated on a microscopic chamber slide (ICN, Costa Mesa, Calif.), serum starved in DMEM containing 1 mg/ml BSA for 3 h, followed by treatment with 100 nmol/l insulin or 25 mg/l FSE for 10 and 30 min respectively. Treatment was terminated by keeping the slide on ice and washing with cold PBS. Cells were fixed with 3% para-formaldehyde (PF) in PBS for 15 min at room temperature. GLUT4 translocation was investigated by using LSM confocal microscope (Zeiss LSM 510, Heidelberg, Germany). 3T3-L1 expressing mycGLUT4 were grown in 96 well plated then differentiated to adipocytes, serum starved for 3 h and incubated with insulin or FSE for 10 and 30 min respectively. To examine the specificity of the signaling pathway the cells were pretreated with wortmannin (100 nmol/l) or BIS-1 (100 nmol/l) for 20 min and 1 h respectively. […] The optical absorbance of the supernatant was measured at 414 nm. […]
as §1

[4] = tested on: insulin receptor, IRS-1 and p85 subunit of PI3-Kinase in 3T3-L1 adipocytes; assay: Phosphorylation of insulin signaling proteins in 3T3-L1 adipocytes (western blot); format: cell-based; details: 3T3-L1, 25 mg/l FSE or 100 nmol/l insulin
Procedure: (§2) Effect of FSE on insulin signaling proteins in 3T3-L1 Adipocytes and HepG2 cell lines. Differentiated 3T3-L1 adipocytes or HepG2 cell were serum starved in F-12K medium containing 7 mM glucose and 0.1% BSA for 16 h followed by changing medium to DMEM containing 25 mmol/l glucose and incubated for 1 h. Subsequently the cells were treated with 100 nmol/l insulin or 25 mg/l FSE for 10 min and 30 min respectively. Untreated cells were incubated with PBS. Cells were washed with cold PBS, removed from the plates using a rubber policeman, lysed in lysis buffer (50 mmol/l Tris-HCl pH7.5, 150 mmol/l NaCl, 1% NP-40, 2 mmol/l EGTA, 2 mmol/l Na3VO4, 100 mmol/l Na4P2O7, […], 1 mmol/l PMSF and protease inhibitor cocktail) on ice for 30 min, passed through 261/2G syringe 20 times and finally centrifuged at 15,000×g for 10 min at 4° C. Equal amounts of protein (100 μg) were diluted in 5× Laemmli reducing buffer (250 mmol/l Tris-HCl p 6.8, 10% SDS, 0.5% bromophenol blue, 50% glycerol, 12.5% β-mercaptoethanol) boiled for 5 min at 100° C. and resolved by 8% SDS-PAGE by running proteins below 43 kDa out of the gel. The proteins form the gel were transferred to nitrocellulose membrane using transfer buffer (CAPS buffer pH 10.7 containing 10% methanol) by applying 150 mA current for 2 h. […]

liver glucokinase (GK) = assay: Liver glucokinase assay in STZ-BALB/cJ mice; format: in vivo
Procedure: BALB/cJ or Swiss albino mice (male, 8-10 week old) were housed under environmentally controlled conditions (22+/−2° C.) with a 12 h light/dark cycle and had free access to standard rodent pellet food and water. Animals were given 5 daily intraperitoneal (IP) injection of freshly prepared STZ (40 mg/kg in 0.5 mol/l sodium citrate pH 4.5) or AXN (50 mg/kg in 0.9% sodium chloride). Ten hours before the experiments, animals were moved to new cages in which no food was available. AXN injected mice that achieved a glucose level of 200-300 mg/dl and STZ injected mice that achieved a glucose level of 275-400 mg/dl were used as hyperglycemic models in this study. Mice were divided into, diabetic control group, insulin group and FSE group (n=5 in each group). Mice were injected (IP) with vehicle (PBS), insulin (1.5 U/kg) or extract (1, 5 or 15 mg/kg). Blood was collected before injection (0 min), 90 and 240 min after the treatments and serum blood glucose levels were estimated. In some experiments STZ-BALB/cJ mice were sacrificed 90 min after the treatments, and the livers were harvested for analysis. In another set of experiments, AXN-induced Swiss albino diabetic mice were injected with PBS or extract for 5 days (n=5). Blood was collected on day 0, 5, 10 and 15 and body weight was monitored on same day. Acidified insulin from bovine pancreas diluted in PBS was used as a positive test compound in all the experiments. All animal experiments have been performed following the requirement of the committee for the Purpose of Control and Supervision of Experiments on Animals (CPCSEA), Government of India, and after permission of the Institute's Animal Care and Use Committee (IACUC).
Glucokinase assay. Liver samples were homogenized in three volumes of ice cold buffer containing 50 mmol/l Tris-HCl, pH 7.4, 300 mmol/l sucrose, 100 mmol/l KCl, 1 mmol/l EDTA 2.5 mmol/1 mercaptoethanol and centrifuged at 12,000×g for 15 min (12). […] GK activity was calculated as the difference between the glucose phosphorylation capacity at 100 and 0.5 mmol/l glucose. […]

[5] = tested on: insulin receptor, IRS-1 and p85 subunit of PI3-Kinase in HepG2 cells; assay: Phosphorylation of insulin signaling proteins in HepG2 cells (western blot); format: cell-based, human; details: HepG2, 25 mg/l FSE or 100 nmol/l insulin
Procedure: as §2

| Molecule | effect of inhibitors on fluorescence associated with the membrane (PKCλ in HepG2 cells) | effect of inhibitor pretreatment on translocation of PKCλ induced by FSE [1] | effect of inhibitor pretreatment on FSE stimulated glucose uptake [2] | effect of inhibitor pretreatment on FSE induced GLUT4 translocation ([3]; wortmannin 100 nmol/l 20 min, BIS-1 100 nmol/l 1 h) | IR-α phosphorylation [4] | enhancement of GK activity compared to diabetic control (liver glucokinase (GK); STZ-diabetic BALB/cJ mice, 90 min, FSE 15 mg/kg) [%] | activation of GK compared to control treated animals (liver glucokinase (GK); diabetic animals, 90 min treatment) [fold] | GK activity (liver glucokinase (GK); liver removed 90 min after treatment, insulin 1.5 U/kg or FSE 15 mg/kg) [nmol/min/mg] | enhancement of glucose uptake ([3]; 100 nmol/l insulin, under similar experimental conditions) [fold] | IR-α phosphorylation [5] |
| --- | --- | --- | --- | --- | --- | --- | --- | --- | --- | --- |
| CN(C)CCCn1cc(C2=C(c3c[nH]c4ccccc34)C(=O)NC2=O)c2ccccc21 [BIS-1] | decreased | inhibited | abrogated | masked | – | – | – | – | – | – |
| insulin | – | – | – | – | did not exhibit | 460 | 4.5 | 690.0 | 2.5 | did not exhibit |
